Assay results as given in patent US5672603A, “Apoptosis regulating composition” (Otsuka Pharmaceutical Co., Ltd., priority 1991, dated 1997).
“Also recorded” adds a separate entry of the source.

Assays:
HL-60 cells = assay: Differentiation inducing test: reactivity of HL-60 cells with monoclonal antibody FH-6 (sialyl Le^X); format: cell-based, human; conditions: 2 hours; for Positive rate (%), FH-6: control 95
Method: The monoclonal antibody FH-6 capable of recognizing sialyl Le^X was fluoresein (FITC)-labeled, and the reactivity between the active ingredient compound of the present invention and FH-6 was examined by flow cytometry as follows.
The test compound solutions prepared as described above under (3) were added to HL-60 cells prepared as described above under (1) to a final concentration of 1.0 μg/ml or 10 μg/ml. Cultivation was conducted in a 5% carbon dioxide gas incubator at 37° C. for 2 hours. Thereafter, the cell concentration was adjusted to 1 x 10^6 cells/ml and 100 μl of each aliquot was reacted with 10 μl of the fluorescein-labeled FH-6 solution, followed by flow cytometry.

[1] = tested on: W/BF1 :(NZW×BXSB)F1 mice with spontaneous autoimmune disease; assay: Life-prolonging effect in autoimmune disease mice; format: in vivo
Excerpt: W/BF1 :(NZW×BXSB)F1 mice are mice with spontaneous autoimmune disease. They are known as an animal model of lupus nephritis accompanied, with high frequency, by hypertension and myocardial infarction [Hang, L. M., et al., J. Exp. Med., 154, 216-221 (1981)]. They develop anti-platelet antibodies with increasing age, showing marked thrombocytopenia, and are used as an animal model of idiopathic thrombocytopenic purpura (ITP) as well [Oyaizu, N., et al., J. Exp. Med. 167, 2017-2077 (1988)]. It has been reported that more than 90% of the model animals die of myocardial infarction or renal failure within 8 months of birth [Ikehara, S., Metabolism and Disease, (Suppl) 26, 169-176 (1989)].
(§1) W/BF1 :(NZW×BXSB)F1 mice were used at the age of 14 weeks (purchased from Kiwa Experimental Animal). Groups of 10 mice were used in each experiment.
(§2) The mice in respective groups were given a diet (Oriental Yeast), which is usually given to this kind of mice, and water.
(§3) Compound 1 (Lot No. 9D87M) was used as suspended in a 0.5% solution of carborymethylcellulose (CMC, Cellogan). Compound 1 was administered to mice by oral garage in doses of 100 and 300 mg/kg body weight/day for 6 weeks from 14 weeks of age to 20 weeks of age according to the 5-day administration and 2-day cessation schedule. As a control, an untreated group was provided. […] Statistic analysis was performed by the generalized Wilcoxon test with respect to the untreated group.
In the figure, the ordinate represents the survival rate (%) and the abscissa represents the age in weeks (14 weeks to 20 weeks).

W/BF1 :(NZW×BXSB)F1 mice = assay: Blood cell analysis in autoimmune disease mice; format: in vivo
Method: as §1, §2, §3
(2) For blood cell analysis, the blood was sampled from the fundus oculi at the age of 14, 16, 18 and 20 weeks. Changes in blood cell (white blood cell, red blood cell and platelet) counts were determined using an automatic blood cell analyzer (Coulter JR, Coulter). The differential (neutrophil and 11 lymphocyte) counts were determined using blood smears stained with Wright-Giemsa stain. For statistical analysis, Student's t test was used, taking the untreated group as control, on each blood sampling day.

MRL/Mp-1 pr/1 pr mice = assay: Therapeutic effect on autoimmune disease in MRL mice; format: in vivo; conditions: 300 mg/kg oral
Excerpt: Groups of five female MRL/Mp-1 pr/1 pr mice (purchased at 7 weeks of age from Charles River Japan, Inc.) were used at the age of 19 weeks.
Mice of the above strain are known to spontaneously develop autoimmune diseases such as human systemic lupus erythematosus (SLE)-like immune complex glomerulonephritis, lymphoma, vasculitis and polyarthritis (Theofilopolos, A. and Dixon, F. J., Adv. Immunology, 37, 269 (1985); Murphy, E. D., Roths, J. B., Autoimmunity and lymphoproliferation, Elsevier North Holland, N.Y., 207-221 (1978); Taniguchi, Y., Gendai Iryo, 21, 131 (1989); Abe, C.).
Mice in both the Compound 1-treated group and the control group (untreated group) were given a mouse diet (Oriental Yeast) and water.
Compound 1 was used as suspended in 0.5% carboxymethytcellulose (CMC, Dai-ichi Kogyo Seiyaku Co., Ltd.) solution.
Compound 1 was administered by oral garage in a dose of 300 mg/kg body weight daily from the age of 19 weeks to the age of 25 weeks according to the 5-day administration and 2-day cessation schedule (Compound 1-treated group).
Mice in the respective groups were examined for changes in urinary protein, lymphoma diameter, vasculitis of the auricle, and loss of hair.

In the case of `COc1ccc(C(=O)N2CCN(c3ccc4c(c3)CCC(=O)N4)CC2)cc1OC` [Compound 1, 6-[4-(3,4-Dimethoxybenzoyl)-1-piperazinyl]-3,4-dihydrocarbostyril], the “Sialic acid on HL-60 cell surface” value (HL-60 cells; 1.0 or 10 μg/ml) is reported as “loss of sialic acid from the HL-60 cell surface”, the “Positive rate (%), FH-6” value (HL-60 cells; 1.0 μg/ml) is reported as 82% and the “Positive rate (%), FH-6” value (HL-60 cells; 10 μg/ml) is reported as 76%. The “Deaths till 20 weeks of age” value ([1]; 100 mg/kg/day oral, untreated: two, one and three dead at 17, 18, 19 weeks) was “no death occurred”, the “Animals found dead at 18 weeks of age” value ([1]; 300 mg/kg/day oral, groups of 10) was “two” and the “Life-prolonging effect (in words)” value ([1]; 100 and 300 mg/kg/day oral) was “significant life-prolonging effect”. The Lymphocytes (W/BF1 :(NZW×BXSB)F1 mice; 100 mg/kg, 14 weeks of age) was 6.55 ± 1.11 ×10^3 /mm^3, the Neutrophils (W/BF1 :(NZW×BXSB)F1 mice; 100 mg/kg, 14 weeks of age) was 0.97 ± 0.21 ×10^3 /mm^3 and the Platelets (W/BF1 :(NZW×BXSB)F1 mice; 100 mg/kg, 14 weeks of age) was 1225.2 ± 187.6 ×10^3 /mm^3. The Red blood cells (W/BF1 :(NZW×BXSB)F1 mice; 100 mg/kg, 14 weeks of age) was 9.08 ± 0.19 ×10^6 /mm^3, the White blood cells (W/BF1 :(NZW×BXSB)F1 mice; 100 mg/kg, 14 weeks of age) was 7.53 ± 1.26 ×10^3 /mm^3 and the Lymphocytes (W/BF1 :(NZW×BXSB)F1 mice; 100 mg/kg, 16 weeks of age) was 9.83 ± 2.72 ×10^3 /mm^3. The Neutrophils (W/BF1 :(NZW×BXSB)F1 mice; 100 mg/kg, 16 weeks of age) was 3.01 ± 2.14 ×10^3 /mm^3, the Platelets (W/BF1 :(NZW×BXSB)F1 mice; 100 mg/kg, 16 weeks of age) was 749.6 ± 116.6 ×10^3 /mm^3 and the White blood cells (W/BF1 :(NZW×BXSB)F1 mice; 100 mg/kg, 16 weeks of age) was 12.91 ± 4.76 ×10^3 /mm^3. The Red blood cells (W/BF1 :(NZW×BXSB)F1 mice; 100 mg/kg, 16 weeks of age, *P < 0.05) was 9.06 ± 0.19 ×10^6 /mm^3, the Lymphocytes (W/BF1 :(NZW×BXSB)F1 mice; 100 mg/kg, 18 weeks of age) was 10.68 ± 3.78 ×10^3 /mm^3 and the Neutrophils (W/BF1 :(NZW×BXSB)F1 mice; 100 mg/kg, 18 weeks of age) was 5.82 ± 1.65 ×10^3 /mm^3. For the same molecule, the Platelets (W/BF1 :(NZW×BXSB)F1 mice; 100 mg/kg, 18 weeks of age) was 524.0 ± 105.6 ×10^3 /mm^3, the Red blood cells (W/BF1 :(NZW×BXSB)F1 mice; 100 mg/kg, 18 weeks of age) was 8.46 ± 0.34 ×10^6 /mm^3 and the White blood cells (W/BF1 :(NZW×BXSB)F1 mice; 100 mg/kg, 18 weeks of age) was 16.49 ± 4.98 ×10^3 /mm^3. For the same molecule, the Lymphocytes (W/BF1 :(NZW×BXSB)F1 mice; 100 mg/kg, 20 weeks of age) was 8.70 ± 1.02 ×10^3 /mm^3, the Neutrophils (W/BF1 :(NZW×BXSB)F1 mice; 100 mg/kg, 20 weeks of age) was 3.25 ± 1.06 ×10^3 /mm^3 and the Platelets (W/BF1 :(NZW×BXSB)F1 mice; 100 mg/kg, 20 weeks of age) was 341.1 ± 111.9 ×10^3 /mm^3. The White blood cells (W/BF1 :(NZW×BXSB)F1 mice; 100 mg/kg, 20 weeks of age) was 11.72 ± 1.71 ×10^3 /mm^3, the Red blood cells (W/BF1 :(NZW×BXSB)F1 mice; 100 mg/kg, 20 weeks of age, *P < 0.05) was 8.29 ± 0.37 ×10^6 /mm^3 and the “Inhibition of decrease in platelet count (in words)” value (W/BF1 :(NZW×BXSB)F1 mice; 300 mg/kg/day, 20 weeks of age, vs untreated) was “significant inhibition”. For the same molecule, the Lymphocytes (W/BF1 :(NZW×BXSB)F1 mice; 300 mg/kg, 14 weeks of age) was 4.50 ± 0.63 ×10^3 /mm^3, the Neutrophils (W/BF1 :(NZW×BXSB)F1 mice; 300 mg/kg, 14 weeks of age) was 0.79 ± 0.19 ×10^3 /mm^3 and the Platelets (W/BF1 :(NZW×BXSB)F1 mice; 300 mg/kg, 14 weeks of age) was 1316.8 ± 86.3 ×10^3 /mm^3. The Red blood cells (W/BF1 :(NZW×BXSB)F1 mice; 300 mg/kg, 14 weeks of age) was 9.17 ± 0.21 ×10^6 /mm^3, the White blood cells (W/BF1 :(NZW×BXSB)F1 mice; 300 mg/kg, 14 weeks of age) was 5.46 ± 0.74 ×10^3 /mm^3 and the Lymphocytes (W/BF1 :(NZW×BXSB)F1 mice; 300 mg/kg, 16 weeks of age) was 7.01 ± 0.92 ×10^3 /mm^3. The Neutrophils (W/BF1 :(NZW×BXSB)F1 mice; 300 mg/kg, 16 weeks of age) was 1.86 ± 0.40 ×10^3 /mm^3, the Platelets (W/BF1 :(NZW×BXSB)F1 mice; 300 mg/kg, 16 weeks of age) was 1055.8 ± 72.0 ×10^3 /mm^3 and the Red blood cells (W/BF1 :(NZW×BXSB)F1 mice; 300 mg/kg, 16 weeks of age) was 8.43 ± 0.30 ×10^6 /mm^3. For the same molecule, the White blood cells (W/BF1 :(NZW×BXSB)F1 mice; 300 mg/kg, 16 weeks of age) was 9.36 ± 1.77 ×10^3 /mm^3, the Lymphocytes (W/BF1 :(NZW×BXSB)F1 mice; 300 mg/kg, 18 weeks of age) was 6.16 ± 0.88 ×10^3 /mm^3 and the Neutrophils (W/BF1 :(NZW×BXSB)F1 mice; 300 mg/kg, 18 weeks of age) was 5.65 ± 2.77 ×10^3 /mm^3. For the same molecule, the Platelets (W/BF1 :(NZW×BXSB)F1 mice; 300 mg/kg, 18 weeks of age) was 980.0 ± 114.4 ×10^3 /mm^3, the Red blood cells (W/BF1 :(NZW×BXSB)F1 mice; 300 mg/kg, 18 weeks of age) was 8.83 ± 0.32 ×10^6 /mm^3 and the White blood cells (W/BF1 :(NZW×BXSB)F1 mice; 300 mg/kg, 18 weeks of age) was 11.90 ± 3.52 ×10^3 /mm^3. For the same molecule, the Lymphocytes (W/BF1 :(NZW×BXSB)F1 mice; 300 mg/kg, 20 weeks of age) was 10.73 ± 5.81 ×10^3 /mm^3, the Neutrophils (W/BF1 :(NZW×BXSB)F1 mice; 300 mg/kg, 20 weeks of age) was 2.24 ± 0.23 ×10^3 /mm^3 and the Red blood cells (W/BF1 :(NZW×BXSB)F1 mice; 300 mg/kg, 20 weeks of age) was 7.90 ± 0.30 ×10^6 /mm^3. For the same molecule, the White blood cells (W/BF1 :(NZW×BXSB)F1 mice; 300 mg/kg, 20 weeks of age) was 12.97 ± 5.95 ×10^3 /mm^3, the Platelets (W/BF1 :(NZW×BXSB)F1 mice; 300 mg/kg, 20 weeks of age, **P < 0.01) was 823.3 ± 24.5 ×10^3 /mm^3 and the “Red blood cell count (in words)” value (W/BF1 :(NZW×BXSB)F1 mice; compared with the platelet count result) was “A similar result was found for red blood cell count”. For the same molecule, the “Effect on white blood cell count (in words)” value (W/BF1 :(NZW×BXSB)F1 mice; mouse, in vivo) was “no effect on this parameter”, the Urinary protein (MRL/Mp-1 pr/1 pr mice; 19 to 25 weeks of age, vs control) was “tendency of inhibition of the increase in urinary protein” and the Loss of hair (MRL/Mp-1 pr/1 pr mice; FIG. 8, vs control) was “improvements in vasculitis and loss of hair”. For the same molecule, the Vasculitis (MRL/Mp-1 pr/1 pr mice; FIG. 8, vs control) was “improvements in vasculitis”, the “Lymphoma size, diameter” value (MRL/Mp-1 pr/1 pr mice; control 9.0±0.8 mm) was 7.8±1.3 mm and the “Lymphoma (in words)” value (MRL/Mp-1 pr/1 pr mice; vs control) was “enlargement of lymphoma was slightly inhibited; also recorded: reduction in lymphoma”.
